Assay results reported in US5716956A, “Dihydrophthalazine antagonists of excitatory amino acid receptors” (Bearsden Bearsden Bio, Inc., priority 1996, dated 1998).
Where two headings read alike, the source gives them in different places.

Columns and labels:
Male NIH Swiss mice = assay: Maximum Electro Shock (MES) Seizure Test; assay type: in vivo; conditions: ip, 0.5 hours
Method: The extent of protection by a test compound in a seizure model is tested as described by Rogawski et al. (Epilepsy Research, 15:179-184, 1993). Male NIH Swiss mice (25-30 g) are injected ip with the test drug. The mice are subjected to a 0.2 sec, 60 Hz, 50 mA electrical stimulus delivered with corneal electrodes wetted with 0.9% saline at 15-30 min post dosing. Animals failing to show tonic hind limb extension are scored as protected. Compounds may be selected which are active in this model.

AMPA receptor = AMPA receptor inhibition, whole-cell patch clamp, KA-stimulated currents in primary cultures of rat neocortex; assay type: cell-based; conditions: rat cortical neurons; for AMPA % INHIBITION (10 μM drug): KA 50 μM; for IC50: 5 doses
Method: The potency of Examples 1-5, 7, 11, 17 and 31 listed in Table 1, for drug inhibition of the AMPA receptor was tested using the whole-cell patch clamp technique on primary cultures of rat neocortex. The general procedure for stimulating AMPA-receptor mediated currents with KA and for the measurement of current inhibition is based on that used by Donevan and Rogawski (Neuron, 10:51-59, 1993) for 2,3-benzodiazepines.
Standard extracellular bath solutions and intracellular pipette solutions are used as described in detail by Hussy and coworkers (J. Physiol. (Lond.), 481.2:311-323,1994). The drug application system is designed to allow rapid switching between 7 different reservoirs containing either control bath solution, kainic acid (50 μM), or kainic acid (50 μM) plus antagonist (10 μM). Each recording is begun with a control response to KA alone.
Following the establishment of a 2-3 sec duration steady baseline, bathing solution is switched to one containing KA plus antagonist for an additional 2-3 sec period. Alternatively, 5 different doses of a single compound are tested for the determination of the antagonist IC50. The results of the assay of Examples 1-5, 7, 11, 17 and 31 are listed below in Table 3, which illustrates AMPA receptor inhibition in rat cortical neurons. The compounds tested all were useful as antagonists of non-NMDA EAA receptors.

Mice = assay: Subcutaneous Metrazol (scMET) Seizure Test; assay type: in vivo; conditions: 30 mg/kg, 0.5 hr, metrazol 90 mg/kg sc
Method: This test is to determine the extent of protection by a test compound in a seizure model. The method used is that of Chen et at. (Proc. Soc. Exp. Biol. Med., 87:334, 1954). Mice are randomly assigned to vehicle or treatment groups of 3-10 animals per group and then dosed accordingly. Metrazol (pentylenetetrazol) 90 mg/kg is administered subcutaneously (sc) at different time points (0.25, 0.5, 1, 2, 4 hr) after the treatment or control groups. The mice individually housed in clear runs and observed for the presence or absence of clonic seizure activity (>5 s duration) for 30 min after metrazol dosing. A compound is considered active if no seizure is observed. Data is analyzed using a quantal measure (protection/number tested).

cortical infarct volumes = conditions: cited from earlier work
global ischemia = conditions: rat common carotid arteries model; cited from earlier work

IC50 (AMPA receptor) [µM] | Structure (SMILES) | AMPA % INHIBITION (10 μM drug) (AMPA receptor) [%] | further results
2.8 | CCCNC(=O)N1N=C(c2ccc(N)cc2)c2cc3c(cc2C1C)OCO3 (stereo not drawn) [Example 3, 4-(4-Aminophenyl)-1,2-dihydro-1-methyl-2-propylcarbamoyl-6,7-methylendioxyphthalazine] | 80 | MES Score (protected/no. tested) (Male NIH Swiss mice; 31 mg/kg): 5/8
5.4 | CC1c2cc3c(cc2C(c2ccc(N)cc2)=NN1C(=O)NC(C)(C)C)OCO3 (stereo not drawn) [Example 7] | 70 | 
7.2 | CCNC(=O)N1N=C(c2ccc(N)cc2)c2cc3c(cc2C1C)OCO3 (stereo not drawn) [Example 2, 4-(4-Aminophenyl)-1,2-dihydro-2-(N-ethylcarbamoyl)-1-methyl-6,7-methylendioxyphthalazine] | 55 | MES Score (protected/no. tested) (Male NIH Swiss mice; 30 mg/kg): 3/3
 | CCCNC(=O)N1N=C(c2ccc(N)cc2)c2cc(OC)c(OC)cc2C1C (stereo not drawn) [Example 133] |  | MES Score (protected/no. tested) (Male NIH Swiss mice; 30 mg/kg): 1/3; scMET Score (protect./no. tested) (Mice): 1/5
 | CC1=NN=C(c2ccc(N)cc2)c2cc3c(cc2C1)OCO3 [GYKI 52466] |  | reduction of cortical infarct volumes (cortical infarct volumes; delayed for one hour): 48%; reduction of cortical infarct volumes (cortical infarct volumes; given continuously for 2 hours just after occlusion): 68%; effectiveness in global ischemia compared with NBQX (global ischemia): as effective as the glutamate site competitive antagonist NBQX
 | CCC1c2cc3c(cc2C(c2ccc(N)cc2)=NN1C(=O)NC)OCO3 (stereo not drawn) [Example 11, 4-(4-Aminophenyl)-1,2-dihydro-1-ethyl-2-methylcarbamoyl-6,7-methylendioxyphthalazine] | 36 | 
 | CC(=O)N1N=C(c2ccc(N)cc2)c2cc3c(cc2C1C)OCO3 (stereo not drawn) [Example 17] | 20 | 
 | CC1c2cc3c(cc2C(c2ccc(N)cc2)=NN1C(=O)N(C)C)OCO3 (stereo not drawn) [Example 31, 4-(4-Aminophenyl)-1,2-dihydro-2-(N,N-dimethylcarbamoyl)-1-methyl-6,7-methylendioxyphthalazine] | 33 | 
23 | CNC(=O)N1N=C(c2ccc(N)cc2)c2cc3c(cc2C1C)OCO3 (stereo not drawn) [Example 1, 4-(4-Aminophenyl)-1,2-dihydro-1-methyl-2-(N"-methylcarbamoyl)-6,7-methylendioxyphthalazine] | 20 | 
 | CC(C)NC(=O)N1N=C(c2ccc(N)cc2)c2cc3c(cc2C1C)OCO3 (stereo not drawn) [Example 4, 4-(4-Aminophenyl)-1,2-dihydro-1-methyl-2-isopropylcarbamoyl-6,7-methylendioxyphthalazine] | 45 | 
1.8 | CCCCNC(=O)N1N=C(c2ccc(N)cc2)c2cc3c(cc2C1C)OCO3 (stereo not drawn) [Example 5, 4-(4-Aminophenyl)-1,2-dihydro-1-methyl-2-n-butylcarbamoyl-6,7-methylenedioxyphthalazine] | 86 | 
